In patent US20260184681A1, “PIPERIDINE DERIVATIVE, SALT OF SAME, AND PHARMACEUTICAL COMPOSITION CONTAINING SAME AS ACTIVE INGREDIENT” (PHARMCADD CO., LTD., priority 2022, published 2026):
pIC50: −log10 of the molar value. Counter-ions that a name gives are not always drawn.

Test system: MV4-11, an acute myeloid leukemia cell line
Experiment: WST-8 cell viability assay (inhibition of cancer cell proliferation) in MV4-11
Type: cell-based
Conditions: Homo sapiens, MV4-11 cells, 72 hours, WST-8 assay; for inhibition at 10 µM: compound at 10 μM; for pIC50: final concentration 0.02 to 100 μM
Procedure: In order to confirm the inhibition of cancer cell proliferation of the compound, the WST-8 assay (Cyto X cell viability assay kit, LPS solution, Daejeon, Korea) was performed according to the manufacturer's protocol. MV4-11, an acute myeloid leukemia cell line, was inoculated into a 96-well plate at 3×10^3 per well. The cells were cultured for 24 hours, and treated with the compound at a concentration of 10 μM. After 72 hours, the culture medium was discarded and a chromatographic solution was added. Following a 1-hour incubation at 37° C., color development was observed, and the absorbance was measured at 480 nm using a Versamax microplate reader (Molecular Devices, CA, USA). In addition, in order to confirm the IC50 value of the compound in MV4-11, the cells were treated with the compound with the final concentration of 0.02 to 100 μM in the same manner as the experiment above.

CC(C)(C)c1ccc(C(=O)Nc2ccc(C(N)=O)c(NC3CCCN(C(=O)Nc4ccc(I)cc4)C3)c2)cc1 (stereo not shown) [Example B-24, 3-((5-(4-(tert-butyl)benzamido)-2-carbamoylphenyl)amino)-N-(4-iodophenyl)piperidine-1-carboxamide]
inhibition at 10 µM: 94% | pIC50: 5.33

CN(C)S(=O)(=O)N1CCCC(Nc2cc(NC(=O)c3ccc(C(C)(C)C)cc3)ccc2C(N)=O)C1 (stereo not shown) [Example A-3, 4-(tert-butyl)-N-(4-carbamoyl-3-((1-(N,N-dimethylsulfamoyl)piperidin-3-yl)amino)phenyl)benzamide]
inhibition at 10 µM: 87.6% | pIC50: 5.17

CC(C)(C)c1ccc(C(=O)Nc2ccc(C(N)=O)c(NC3CCCN(C(=O)Nc4ccccc4)C3)c2)cc1 (stereo not shown) [Example B-12, 3-((5-(4-(tert-butyl)benzamido)-2-carbamoylphenyl)amino)-N-phenylpiperidine-1-carboxamide]
inhibition at 10 µM: 96.2% | pIC50: 5.42

CCc1cccc(CC)c1NC(=O)N1CCCC(Nc2cc(NC(=O)c3ccc(C(C)(C)C)cc3)ccc2C(N)=O)C1 (stereo not shown) [Example B-18, 3-((5-(4-(tert-butyl)benzamido)-2-carbamoylphenyl)amino)-N-(2,6-diethylphenyl)piperidine-1-carboxamide]
inhibition at 10 µM: 93.7% | pIC50: 5.27

CC(C)(C)c1ccc(C(=O)Nc2ccc(C(N)=O)c(NC3CCNCC3)c2)cc1 [Example D-11, 4-(tert-butyl)-N-(4-carbamoyl-3-(piperidin-4-ylamino)phenyl)benzamide trifluoroacetate]
inhibition at 10 µM: 70% | pIC50: 5.77

CCCCNC(=O)N1CCCC(Nc2cc(NC(=O)c3ccc(C(C)(C)C)cc3)ccc2C(=O)OC)C1 (stereo not shown) [Example B-4, methyl 4-(4-(tert-butyl)benzamido)-2-((1-(butylcarbamoyl)piperidin-3-yl)amino)benzoate]
inhibition at 10 µM: 84.6% | pIC50: 4.82

CC(C)(C)c1ccc(C(=O)Nc2ccc(C(N)=O)c(NC3CCCNC3)c2)cc1 [Example D-10, 4-(tert-butyl)-N-(4-carbamoyl-3-(piperidin-3-ylamino)phenyl)benzamide trifluoroacetate]
inhibition at 10 µM: 70% | pIC50: 5.70

CCCCN1CCCC(Nc2cc(NC(=O)c3ccc(C(C)(C)C)cc3)ccc2C(N)=O)C1 [Example D-6, 4-(tert-butyl)-N-(3-((1-butylpiperidin-3-yl)amino)-4-carbamoylphenyl)benzamide]
inhibition at 10 µM: 95.5% | pIC50: 5.35

COC(=O)c1ccc(NC(=O)c2ccc(C(C)(C)C)cc2)cc1NC1CCCN(C)C1 [Example D-7, methyl 4-(4-(tert-butyl)benzamido)-2-((1-methylpiperidin-3-yl)amino)benzoate]
inhibition at 10 µM: 100% | pIC50: 5.34

CN1CCCC(Nc2cc(NC(=O)c3ccc(C(C)(C)C)cc3)ccc2C(N)=O)C1 [Example D-9, 4-(tert-butyl)-N-(4-carbamoyl-3-((1-methylpiperidin-3-yl)amino)phenyl)benzamide]
inhibition at 10 µM: 100% | pIC50: 5.37

CCN1CCCC(Nc2cc(NC(=O)c3ccc(C(C)(C)C)cc3)ccc2C(=O)OC)C1 [Example D-1, methyl 4-(4-(tert-butyl)benzamido)-2-((1-ethylpiperidin-3-yl)amino)benzoate]
inhibition at 10 µM: 100% | pIC50: 5.47

COC(=O)c1ccc(NC(=O)c2ccc(C(C)(C)C)cc2)cc1NC1CCCN(Cc2ccccc2)C1 (stereo not shown) [Example E-1, methyl 2-((1-benzylpiperidin-3-yl)amino)-4-(4-(tert-butyl)benzamido)benzoate]
inhibition at 10 µM: 70.1% | pIC50: 5.66

CC(C)(C)c1ccc(C(=O)Nc2ccc(C(=O)O)c(NC3CCCN(Cc4ccccc4)C3)c2)cc1 (stereo not shown) [Example E-2, 2-((1-benzylpiperidin-3-yl)amino)-4-(4-(tert-butyl)benzamido)benzoic acid]
inhibition at 10 µM: 71.1% | pIC50: 5.02

CC(C)(C)c1ccc(C(=O)Nc2ccc(C(N)=O)c(NC3CCCN(C(=O)c4ccccc4)C3)c2)cc1 (stereo not shown) [Example C-6, N-(3-((1-benzoylpiperidin-3-yl)amino)-4-carbamoylphenyl)-4-(tert-butyl)benzamide]
inhibition at 10 µM: 97.1% | pIC50: 5.35

CC(C)(C)c1ccc(C(=O)Nc2ccc(C(N)=O)c(NC3CCCN(C(=O)NC4CCCCC4)C3)c2)cc1 (stereo not shown) [Example B-9, 3-((5-(4-(tert-butyl)benzamido)-2-carbamoylphenyl)amino)-N-cyclohexylpiperidine-1-carboxamide]
inhibition at 10 µM: 94.6% | pIC50: 5.62

CCCCN1CCCC(Nc2cc(NC(=O)c3ccc(C(C)(C)C)cc3)ccc2C(=O)OC)C1 [Example D-4, methyl 4-(4-(tert-butyl)benzamido)-2-((1-butylpiperidin-3-yl)amino)benzoate]
inhibition at 10 µM: 97.8% | pIC50: 5.66

CC(C)(C)c1ccc(C(=O)Nc2ccc(C(N)=O)c(NC3CCCN(S(=O)(=O)Cc4ccccc4)C3)c2)cc1 (stereo not shown) [Example A-15, N-(3-((1-(benzylsulfonyl)piperidin-3-yl)amino)-4-carbamoylphenyl)-4-(tert-butyl)benzamide]
inhibition at 10 µM: 95.9% | pIC50: 5.39

CC(C)(C)c1ccc(C(=O)Nc2ccc(C(N)=O)c(NC3CCCN(C(=O)NCc4cccc(F)c4)C3)c2)cc1 (stereo not shown) [Example B-15, 3-((5-(4-(tert-butyl)benzamido)-2-carbamoylphenyl)amino)-N-(3-fluorobenzyl)piperidine-1-carboxamide]
inhibition at 10 µM: 100% | pIC50: 5.32

CC(C)S(=O)(=O)N1CCCC(Nc2cc(NC(=O)c3ccc(C(C)(C)C)cc3)ccc2C(N)=O)C1 (stereo not shown) [Example A-18, 4-(tert-butyl)-N-(4-carbamoyl-3-((1-(isopropylsulfonyl)piperidin-3-yl)amino)phenyl)benzamide]
inhibition at 10 µM: 90.3% | pIC50: 5.02

CC(C)(C)c1ccc(C(=O)Nc2ccc(C(N)=O)c(NC3CCCN(C(=O)Nc4ccc(C(F)(F)F)cc4)C3)c2)cc1 (stereo not shown) [Example B-36, 3-((5-(4-(tert-butyl)benzamido)-2-carbamoylphenyl)amino)-N-(4-(trifluoromethyl)phenyl)piperidine-1-carboxamide]
inhibition at 10 µM: 97.2% | pIC50: 5.11

CCCCCCCCNC(=O)N1CCCC(Nc2cc(NC(=O)c3ccc(C(C)(C)C)cc3)ccc2C(N)=O)C1 (stereo not shown) [Example B-39, 3-((5-(4-(tert-butyl)benzamido)-2-carbamoylphenyl)amino)-N-octylpiperidine-1-carboxamide]
inhibition at 10 µM: 100% | pIC50: 5.49

COc1cc([N+](=O)[O-])ccc1NC(=O)N1CCCC(Nc2cc(NC(=O)c3ccc(C(C)(C)C)cc3)ccc2C(N)=O)C1 (stereo not shown) [Example B-33, 3-((5-(4-(tert-butyl)benzamido)-2-carbamoylphenyl)amino)-N-(2-methoxy-4-nitrophenyl)piperidine-1-carboxamide]
inhibition at 10 µM: 80.5%
